Patent publication US20220386606A1, “SPECIFICALLY SUBSTITUTED 3-PHENYL-5-SPIROCYCLOPENTYL-3-PYRROLIN-2-ONES AND THEIR USE AS HERBICIDES” (Bayer Aktiengesellschaft, priority 2019, published 2022)

What was measured:
SETVI [1] = experiment: Post-emergence herbicidal action against SETVI; type: in vivo, Setaria viridis; settings: 80 g/ha, visual assessment about 3 weeks after treatment vs untreated controls
Summary of the method: (§1)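 Herbicidal action is rated visually in percent against untreated controls, where 100% means dead plants and 0% means no difference. Ratings come about 3 weeks after foliar spraying of one-leaf-stage plants with aqueous WP or EC preparations plus 0.2% wetting agent at 600 to 800 l/ha.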

VERPE [2] = experiment: Post-emergence herbicidal action against VERPE; type: in vivo, Veronica persica; settings: 80 g/ha, visual assessment about 3 weeks after treatment vs untreated controls
Procedure: (§2) Seeds of monocotyledonous and dicotyledonous weed and crop plants are laid out in sandy loam soil in wood-fiber pots, covered with soil and cultivated in a greenhouse under good growth conditions. 2 to 3 weeks after sowing, the test plants are treated at the one-leaf stage. The compounds of the invention, formulated in the form of wettable powders (WP) or as emulsion concentrates (EC), are then sprayed onto the green parts of the plants as aqueous suspension or emulsion at a water application rate equating to 600 to 800 l/ha with addition of 0.2% wetting agent. After the test plants have been left to stand in the greenhouse under optimal growth conditions for about 3 weeks, the action of the preparations is assessed visually in comparison to untreated controls (herbicidal action in percent (%): 100% activity=the plants have died, 0% activity=like control plants).

ALOMY [3] = experiment: Pre-emergence herbicidal action against ALOMY; type: in vivo, Alopecurus myosuroides; settings: 320 g/ha, scored visually after 3 weeks vs untreated controls
Summary of the method: (§3)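 Visual percent damage, rated 3 weeks after treatment against untreated plants (0% like control, 100% plants dead). Compounds, as wettable powders or emulsion concentrates, were sprayed pre-emergence onto soil covering seeds sown in sandy loam, at 600 to 800 L/ha water with 0.2% wetting agent; pots kept in greenhouse.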

VERPE [4] = experiment: Pre-emergence herbicidal action against VERPE; type: in vivo, Veronica persica; settings: 320 g/ha
Summary of the method: as §3

DIGSA [5] = experiment: Pre-emergence herbicidal action against DIGSA; type: in vivo, Digitaria sanguinalis; settings: 320 g/ha, scored visually after 3 weeks vs untreated controls
Summary of the method: as §3

AVEFA [6] = experiment: Pre-emergence herbicidal action against AVEFA; type: in vivo, Avena fatua; settings: 320 g/ha, scored visually after 3 weeks vs untreated controls
Summary of the method: as §3

POLCO [7] = experiment: Post-emergence herbicidal action against POLCO; type: in vivo, Polygonum convolvulus; settings: 80 g/ha, visual assessment about 3 weeks after treatment vs untreated controls
Procedure: as §2

SETVI [8] = experiment: Pre-emergence herbicidal action against SETVI; type: in vivo, Setaria viridis; settings: 320 g/ha, scored visually after 3 weeks vs untreated controls
Summary of the method: as §3

DIGSA [9] = experiment: Post-emergence herbicidal action against DIGSA; type: in vivo, Digitaria sanguinalis; settings: 80 g/ha, visual assessment about 3 weeks after treatment vs untreated controls
Summary of the method: as §1

ECHCG [10] = experiment: Pre-emergence herbicidal action against ECHCG; type: in vivo, Echinochloa crus-galli; settings: 320 g/ha, scored visually after 3 weeks vs untreated controls
Summary of the method: as §3

ECHCG [11] = experiment: Post-emergence herbicidal action against ECHCG; type: in vivo, Echinochloa crus-galli; settings: 80 g/ha, visual assessment about 3 weeks after treatment vs untreated controls
Summary of the method: as §1

LOLRI [12] = experiment: Pre-emergence herbicidal action against LOLRI (Table 8, titled post-emergence at 320 g/ha); type: in vivo, Lolium rigidum; settings: table stands in the pre-emergence section
Summary of the method: as §3

LOLRI [13] = experiment: Post-emergence herbicidal action against LOLRI; type: in vivo, Lolium rigidum; settings: 80 g/ha, visual assessment about 3 weeks after treatment vs untreated controls
Summary of the method: as §1

VIOTR [14] = experiment: Pre-emergence herbicidal action against VIOTR; type: in vivo, Viola tricolor; settings: 320 g/ha
Summary of the method: as §3

ALOMY [15] = experiment: Post-emergence herbicidal action against ALOMY; type: in vivo, Alopecurus myosuroides; settings: 80 g/ha, visual assessment after about 3 weeks
Summary of the method: as §1

ABUTH [16] = experiment: Post-emergence herbicidal action against ABUTH; type: in vivo, Abutylon threophrasti; settings: 80 g/ha, visual assessment about 3 weeks after treatment vs untreated controls
Summary of the method: as §1

ABUTH [17] = experiment: Pre-emergence herbicidal action against ABUTH; type: in vivo, Abutylon threophrasti; settings: 320 g/ha
Summary of the method: as §3

PHBPU = experiment: Post-emergence herbicidal action against PHBPU; type: in vivo; settings: assessed visually after about 3 weeks, 100% = plants have died, 0% = like control plants
Procedure: as §2

POLCO [18] = experiment: Pre-emergence herbicidal action against POLCO; type: in vivo, Polygonum convolvulus; settings: 320 g/ha
Summary of the method: as §3

AVEFA [19] = experiment: Post-emergence herbicidal action against AVEFA; type: in vivo, Avena fatua; settings: 80 g/ha, visual assessment after about 3 weeks
Summary of the method: as §1

VIOTR [20] = experiment: Post-emergence herbicidal action against VIOTR; type: in vivo, Viola tricolor; settings: 80 g/ha, visual assessment about 3 weeks after treatment vs untreated controls
Procedure: as §2

AMARE = experiment: Pre-emergence herbicidal action against AMARE; type: in vivo, Amaranthus retroflexus; settings: 320 g/ha
Summary of the method: as §3

MATIN = experiment: Pre-emergence herbicidal action against MATIN; type: in vivo; settings: 320 g/ha
Summary of the method: as §3

HORMU = experiment: Post-emergence herbicidal action against HORMU; type: in vivo, Hordeum murinum; settings: 80 g/ha, visual assessment about 3 weeks after treatment vs untreated controls
Summary of the method: as §1

| SMILES | Post-emergence action against SETVI in % (SETVI [1]) | Pre-emergence action against ALOMY in % (ALOMY [3]) | Pre-emergence action against VERPE in % (VERPE [4]) | Pre-emergence action against DIGSA in % (DIGSA [5]) | Pre-emergence action against AVEFA in % (AVEFA [6]) | Post-emergence action against POLCO in % (POLCO [7]) | Pre-emergence action against SETVI in % (SETVI [8]) | Post-emergence action against DIGSA in % (DIGSA [9]) | Pre-emergence action against ECHCG in % (ECHCG [10]) | Post-emergence action against ECHCG in % (ECHCG [11]) | Pre-emergence herbicidal action against LOLRI in % (LOLRI [12]) | Post-emergence action against LOLRI in % (LOLRI [13]) | Pre-emergence action against VIOTR in % (VIOTR [14]) | Post-emergence action against ALOMY in % (ALOMY [15]) | Post-emergence action against ABUTH in % (ABUTH [16]) | Pre-emergence action against ABUTH in % (ABUTH [17]) | Post-emergence action at 80 g/ha against PHBPU in % (PHBPU) | Pre-emergence action against POLCO in % (POLCO [18]) | Post-emergence action against AVEFA in % (AVEFA [19]) | Pre-emergence action against AMARE in % (AMARE) | other results |
| --- | --- | --- | --- | --- | --- | --- | --- | --- | --- | --- | --- | --- | --- | --- | --- | --- | --- | --- | --- | --- | --- |
| CC#Cc1cc(Br)c(C2=C(O)[C@]3(CC[C@H](COCC)C3)NC2=O)c(OC)c1 (stereo in doubt) [Example I-11, 3-(2-Bromo-6-methoxy-4-prop-1-ynylphenyl)-8-(ethoxymethyl)-4-hydroxy-1-azaspiro[4.4]non-3-en-2-one] | 100% | 100% | 100% | 100% | 100% | 80% | 100% | 100% | 100% | 100% | 100% | 100% | 90% | 100% | – | – | – | – | – | – | Post-emergence action against VERPE in % (VERPE [2]): 80% |
| CC#Cc1cc(Br)c(C2=C(O)C3(CCC(COCC)C3)NC2=O)c(OC)c1 (stereo not shown) [Example I-05] | 100% | 100% | – | 100% | 100% | 100% | 100% | 100% | 100% | 100% | 100% | 100% | 90% | 100% | 80% | 80% | 80% | 80% | – | – | – |
| CC#Cc1cc(Br)c(C2=C(O)C3(CCC(COC)C3)NC2=O)c(OC)c1 (stereo not shown) [Example I-10] | 100% | 100% | 100% | 100% | 100% | 80% | 100% | 100% | 100% | 100% | 100% | 100% | 100% | 100% | – | – | – | 80% | – | – | – |
| CC#Cc1cc(F)c(C2=C(O)C3(CCC(COC)C3)NC2=O)c(OC)c1 (stereo not shown) [Example I-41] | 100% | – | – | 100% | 80% | – | 100% | 100% | – | 100% | 100% | 90% | – | 100% | – | – | 80% | – | 90% | – | – |
| CC#Cc1cc(C)c(C2=C(O)C3(CCC(COCCC)C3)NC2=O)c(OC)c1 (stereo not shown) [Example I-58] | 100% | 100% | – | 100% | 80% | – | 100% | 90% | 100% | 100% | 100% | 100% | 90% | 100% | – | – | 80% | – | – | 100% | Post-emergence action against VIOTR in % (VIOTR [20]): 80%; Pre-emergence action against MATIN in % (MATIN): 100% |
| CC#Cc1cc(C)c(C2=C(O)C3(CCC(COCCC)C3)NC2=O)c(Cl)c1 (stereo not shown) [Example I-68] | 100% | 100% | – | 100% | 100% | – | 100% | 100% | 100% | 100% | 100% | 100% | 100% | 100% | – | 90% | 80% | – | – | 100% | Post-emergence action against VIOTR in % (VIOTR [20]): 80%; Pre-emergence action against MATIN in % (MATIN): 100% |
| CC#Cc1cc(C)c(C2=C(OC(=O)C(C)C)C3(CCC(COC)C3)NC2=O)c(Cl)c1 (stereo not shown) [Example P-16] | 100% | – | – | – | – | 80% | – | 100% | – | 100% | – | 100% | – | 100% | 80% | – | – | – | 100% | – | Post-emergence action against VIOTR in % (VIOTR [20]): 80%; Post-emergence action against HORMU in % (HORMU): 100% |
| CC#Cc1cc(C)c(C2=C(OC(=O)OCC)C3(CCC(COC)C3)NC2=O)c(F)c1 (stereo not shown) [Example P-51] | – | 100% | – | 100% | 80% | 80% | 100% | 100% | 100% | 100% | 100% | 100% | 100% | 100% | 80% | 80% | – | 90% | 100% | 90% | – |
| CC#Cc1cc(C)c(C2=C(OC(=O)OCC)C3(CCC(COCCC)C3)NC2=O)c(OC)c1 (stereo not shown) [Example P-81] | 100% | 100% | 90% | 100% | 100% | – | 100% | 90% | 100% | 100% | 100% | 100% | 100% | 100% | – | – | 80% | 100% | 80% | 100% | Pre-emergence action against MATIN in % (MATIN): 80% |
